Values joined by “and” are separate entries in the source; they are usually repeats but may differ in a detail not shown here. Identical values can stand only once. “Also recorded” adds a separate entry of the source. No end group written: not given here.

Series [1] relates to PepF. Nature of the series: Screening of sXIP variants for susceptibility to PepF degradation. To be noted: for percentage of signal loss: peptide 500 nM pre-incubated with PepF 7 nM, 4 h, 37°C vs without PepF, PcomS-luxAB ΔcomS reporter luminescence, mean of technical triplicates; for peptidase resistance in the screening: PepF 7 nM, peptide 500 nM, signal loss compared with native XIP. The class given is in vitro ADME, Streptococcus salivarius HSISS4. The protocol: We next investigated which residues of the pheromone are crucial for peptidase cleavage and screened 20 peptides variants with single XIP mutations. We incubated those peptides with PepF at a mid-range concentration previously identified for the native XIP ([PepF] of 7 nM and [XIP] of 500 nM). Next, we added the peptides incubated or not with PepF to the PcomS-luxAB ΔcomS reporter strain and analyzed the percentage of signal loss upon incubation with the peptidase. […] To quantify more accurately the PepF resistance of variants at those two positions, we used the same degradation assay as used for native sXIP and measured the EC50 for each variant (Figs 5A and S5). Since F4W, F4Y and A5I variants were the most resistant, we combined mutations at positions 4 and 5 in a single peptide to increase its robustness to degradation. […] Because our degradation assay is based on an indirect method of quantification through the use of a reporter strain, bias could be introduced by the effect of the mutations on the ComR-pheromone affinity. To rule out this possibility, we measured the ComR-binding properties of the peptides by electrophoretic mobility shift assays (S6 Fig). Since no correlation between peptide-binding to ComR and pheromone sensitivity to degradation could be drawn, we concluded that the luciferase degradation assay reflects the peptide susceptibility to PepF.
Supplementary file pgen.1010198.s004.tif: S4 Fig Screening of sXIP variants for competence activation and susceptibility to PepF degradation. Specific maximum luciferase activity (RLU/OD600) upon peptide addition is plotted against the loss of signal with the peptide pre-incubated with PepF (plotted as a percentage of signal loss). A total number of 20 sXIP variants of the native S. salivarius sXIP (LPYFAGCL) were tested. The different peptides (500 nM) were incubated during 4 h at 37°C with or without PepF (7 nM). The reaction mixture was then 10-fold diluted by addition to an exponential growing culture (CDM) of the reporter strain defective for the genetically-encoded pheromone XIP (PcomS-luxAB ΔcomS). Dots represents mean of technical triplicates. […] Red/blue dots denote peptides discarded/selected for subsequent characterization due to their weak/strong induction of competence. (TIF) Click here for additional data file.

Series [2] concerns PepF. Description: recombinant PepF in reaction buffer (20 mM Tris HCl, pH 7.0). To be noted: S. salivarius HSISS4, 37°C, up to 4 h.
In series [3] the test system is PepF. Nature of the series: Kinetics of peptide degradation by PepF. The class given is in vitro ADME, Streptococcus salivarius HSISS4. To be noted: PepF 8 nM, peptide 500 nM, 6 h, 37°C. The protocol:
Fig 5 Degradation of PepF-resistant sXIP peptides. (A) PepF degradation efficiency for XIP (LPY[F/Y/W][A/M/I/V]GCL) variants. […] Bars denote standard deviations on the EC50 computation. (B) XIP and XIPF4WA5I kinetics of degradation by PepF. PepF (8 nM) and the peptides (500 nM) were incubated 6 hours at 37°C and sampled every hour for analysis. Reaction was stopped by adding 1 mM EDTA and further added to the PcomS-luxAB ΔcomS reporter strain as previously described. Dots show technical triplicates, the line connects mean values with error bars (standard deviation).
(§1) sXIP and derivatives were incubated at 500 nM with PepF at different concentrations ranging from 100 to 0.025 nM during 4 h at 37°C as described in the previous section. 30 μL of the mix was then added to 270 μL of exponential phase culture of a PcomS reporter strain defective for the pheromone (PcomS-luxAB ΔcomS) and maximum luciferase activity was computed as reported above. Maximum values obtained were normalized by the signal recorded for the peptide incubated without the peptidase and enzyme concentration affording half luminescence (EC50) was extrapolated using Graphpad Prism and the non-linear extrapolation equation: Signal=b+(t−b)/(1+IC50/[PepF]^HS) where t stands for top, b for bottom, and HS for Hill-Slope.

Series [4] addresses PepF (Streptococcus salivarius K12, UniProt J7TQB7). The class given is in vitro ADME, Streptococcus salivarius HSISS4. To be noted: PepF gradient, peptide 500 nM, 4 h, 37°C. On the procedure:
(§2) Overnight precultures were diluted at a final OD600 of 0.05. A volume of 300 μL of culture samples was transferred in the wells of a sterile covered white microplate with a transparent bottom (Greiner, Alphen a/d Rijn, The Netherlands). These culture samples were supplemented with D-xylose or IPTG if stated or further incubated for 100 min at 37°C before supplementation with sXIP or other peptides variants. Growth (OD600) and luciferase (Lux) activity (expressed in relative light units, RLU) were monitored at 10 min intervals during 6 to 24 h in a Hidex Sense microplate reader (Hidex, Lemminkäisenkatu, Finland). Specific or maximum specific Lux activity were obtained by dividing Lux activity by the OD600 for each measurement and summing all the data obtained over time or selecting the maximum value, respectively. Biological or technical triplicates were then averaged. Statistical analyses of simple and multiple comparisons to the control mean were performed with t-test (unilateral distribution, heteroscedastic) and one-way ANOVA with Dunnett’s test, respectively. For both, standard deviations and P values were calculated.
For PepF purification, the PCR-amplified pepF gene from strain HSISS4 was cloned into the pBAD-covR-STN-ter vector [24]. […] Protein purity was analyzed by SDS-PAGE and concentration was measured using a Nanodrop apparatus (A280 method; ThermoFisher Scientific). […]

A further series concerns PepFSsa. The series is classed as in vitro ADME, Streptococcus salivarius HSISS4. To be noted: from EC50 values. On the procedure:
as §1
Supplementary file pgen.1010198.s009.tif: S9 Fig Conservation of PepF in salivarius streptococci and susceptibility of S. vestibularis sXIP to PepF degradation. (A) Alignment of PepF performed with CLC Main Workbench multiple alignment tool (http://www.clcbio.com/products/clc-main-workbench/). PepF from 4 representative strains (i.e. S. salivarius HSISS4, S. thermophilus LMD-9, S. thermophilus LMG18311 and S. vestibularis NTC12167) were used for the alignment. Red, orange, and yellow denote 100%, 75%, and 50% conservation, respectively. The conserved Zinc-binding motif HEXXH is underlined. […]

The subject of series [5] is PcomS-luxAB ΔcomS reporter strain. Description: Screening of sXIP variants for competence activation. The class given is cell-based, Streptococcus salivarius. To be noted: peptide 500 nM incubated 4 h 37°C without PepF, 10-fold diluted into PcomS-luxAB ΔcomS culture (CDM); mean of technical triplicates. The protocol: as §2
Supplementary file pgen.1010198.s004.tif: S4 Fig Screening of sXIP variants for competence activation and susceptibility to PepF degradation. […]

PepF (Streptococcus salivarius K12, UniProt J7TQB7), sequence (J7TQB7 entry or part of it): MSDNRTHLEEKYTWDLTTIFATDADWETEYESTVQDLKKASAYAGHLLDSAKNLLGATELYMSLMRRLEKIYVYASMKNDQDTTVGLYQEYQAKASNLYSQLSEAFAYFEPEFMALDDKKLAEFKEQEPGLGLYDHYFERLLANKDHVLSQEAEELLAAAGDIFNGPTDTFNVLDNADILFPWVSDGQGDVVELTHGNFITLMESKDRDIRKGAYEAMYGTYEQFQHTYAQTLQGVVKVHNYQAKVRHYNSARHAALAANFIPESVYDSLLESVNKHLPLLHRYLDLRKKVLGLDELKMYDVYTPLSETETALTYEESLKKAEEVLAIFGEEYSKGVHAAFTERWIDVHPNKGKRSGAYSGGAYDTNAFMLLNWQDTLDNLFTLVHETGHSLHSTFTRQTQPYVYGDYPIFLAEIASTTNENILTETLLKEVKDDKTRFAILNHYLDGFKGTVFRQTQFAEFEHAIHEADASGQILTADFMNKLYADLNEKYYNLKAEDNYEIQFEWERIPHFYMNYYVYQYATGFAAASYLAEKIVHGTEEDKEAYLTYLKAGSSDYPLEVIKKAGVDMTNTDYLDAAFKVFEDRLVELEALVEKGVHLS

APYFAGCL [APYFAGCL]: the “percentage of signal loss” value with PepF [1] was 87.3461% and 90.7518%.

Take APYFMGCL [APYFMGCL]: the “percentage of signal loss” value in the series with PepF [1] stood at 99.0138%.

With ITILPYFAGCL [ITILPYFAGCL], the “percentage of signal loss” value in the series on PepF [1] is 99.5087%.

On to LAYFAGCL [LAYFAGCL], for which the “percentage of signal loss” value in the series with PepF [1] came to 40.0979%.

As to LPAFAGCL [LPAFAGCL], the “percentage of signal loss” value in the series with PepF [1] turned out to be 83.5452%.

Take LPWFAGCL [LPWFAGCL]: the “percentage of signal loss” value with PepF [1] is 97.3022%.

In the case of LPYAAGCL [LPYAAGCL], in the series on PepF [1], the “percentage of signal loss” value is 77.0857%.

Consider LPYFAACL [LPYFAACL], for which the “percentage of signal loss” value in the series with PepF [1] is reported as 99.6712%.

With LPYFAGAL [LPYFAGAL], the “percentage of signal loss” value in the series on PepF [1] stood at 99.8977%.

Take LPYFAGCL: the cleaved bond result in the series on PepF [2] is “F4-A5, major; also recorded: A5-G6, major”.

As to LPYFAGCL [sXIP, reference compound], in the series on PepF [1], the “percentage of signal loss” value was found to be 99.5932%.

For LPYFAICL [LPYFAICL], in the series on PepF [1], the “percentage of signal loss” value is on record as 1.804%.

With LPYFGGCL [LPYFGGCL], the “percentage of signal loss” value in the series with PepF [1] is 69.5765%.

For LPYFIGCL [LPYFIGCL], in the series with PepF [1], the “peptidase resistance in the screening” value is on record as “higher peptidase resistance” and the “percentage of signal loss” value is reported as 78.4996%.

Regarding LPYFMGCL [LPYFMGCL], in the series with PepF [1], the “peptidase resistance in the screening” value was “higher peptidase resistance” and the “percentage of signal loss” value came to 85.0947%.

LPYFMICL [LPYFMICL]: in the series with PepF [1], the “percentage of signal loss” value was determined as 10.0484%.

For the substance LPYFTGCL [LPYFTGCL], in the series on PepF [1], the “percentage of signal loss” value is given as 97.3896%.

Consider LPYFVGCL [LPYFVGCL], for which the “percentage of signal loss” value in the series with PepF [1] was determined as 94.8201%.

Take LPYWAGCL [LPYWAGCL]: in the series on PepF [1], the “peptidase resistance in the screening” value is listed as “higher peptidase resistance” and the “percentage of signal loss” value came out at 68.1634%.

Consider LPYWIGCL [LPYWIGCL], for which the “degradation kinetics compared to the WT pheromone” value in the series on PepF [3] is “reduced degradation kinetics”. Further, the “proteolysis by PepF in vitro” value on PepF [4] was “slower proteolysis”.

Take LPYYAGCL [LPYYAGCL]: in the series on PepF [1], the “peptidase resistance in the screening” value is given as “higher peptidase resistance” and the “percentage of signal loss” value was determined as 89.6196%.

Take LPYYIGCL [LPYYIGCL]: on PepF [4], the “proteolysis by PepF in vitro” value was “slower proteolysis”.

With VPFFMIYY [sXIPSve], the “PepF-mediated degradation, fold less efficient compared to XIPSsa/Sth” value in the series with PepFSsa is reported as ~ 15 fold.

In series [5], “_PYFAGCL [sXIP variant of the screening lacking the first residue]” displayed a Max specific luciferase of 1453.53 RLU/OD600.

Substance “_PYFMGCL [sXIP variant of the screening lacking the first residue]” returned a Max specific luciferase in series [5] of 2144.5 RLU/OD600. The “percentage of signal loss” value with PepF [1] is 28.6586%.
